2 molecules from patent publication US10369139B2, “Crystalline compound as semicarbazide-sensitive amine oxidase (SSAO) enzyme inhibitor” (BENEVOLENTAI CAMBRIDGE LIMITED, priority 2015, dated 2019) can be followed below.

Where a name gives a salt, the structure may show the parent alone.

Common to all, as to assay type: physicochemical
Data set [1] is described as follows: Hygroscopicity on storage at controlled temperature/relative humidity (Table 2). The source says: Crystalline mesylate salt was isolated and characterised using some or all of XRPD, ^1H NMR, DSC, TGA, GVS, IC, PLM, HSM, HPLC and KF (see Table 2).
Data set [2] is described as follows: Hygroscopicity during long term storage, assessed by Karl Fischer titration. The conditions noted are these: double LDPE liners, desiccant pouch, heat-sealed foil bag, HDPE keg. The protocol:
The water content of each sample was measured on a Mettler Toledo DL39 Coulometer using Hydranal Coulomat AG reagent and an argon purge. Weighed solid samples were introduced into the vessel on a platinum TGA pan which was connected to a subaseal to avoid water ingress. Approx 10 mg of sample was used per titration and duplicate determinations were made.
(§1) Crystalline (3S)-Tetrahydrofuran-3-yl (4S)-4-isopropyl-1,4,6,7-tetrahydro-5H-imidazo[4,5-c]pyridine-5-carboxylate mesylate was also assessed for stability and hygroscopicity when dispensed in 3 g aliquots in double LDPE liners, sealed with cable tie and placed, with a desiccant pouch into a foil bag, which was subsequently heat-sealed. The foil bag was then placed into an HDPE keg fitted with an HDPE lid. These conditions mirror typical GMP level storage conditions. Stability was assessed by HPLC and hygroscopicity was assessed by Karl Fisher (KF) titration.

A short description of data set [3]: Stability during long term storage, assessed by HPLC. The following applies: double LDPE liners, desiccant pouch, heat-sealed foil bag, HDPE keg. The protocol: Purity analysis was performed on an Agilent HP1100 series system equipped with a diode array detector and using ChemStation software vB.02.01-SR1 using the method detailed below (Table 1).
as §1

[4] abbreviates: after 6 months at 40° C./75% RH.

For the molecule `CC(C)[C@H]1c2[nH]cnc2CCN1C(=O)O[C@H]1CCOC1` [Crystalline mesylate salt, (3S)-Tetrahydrofuran-3-yl (4S)-4-isopropyl-1,4,6,7-tetrahydro-5H-imidazo[4,5-c]pyridine-5-carboxylate, Methananesulfonic Acid Salt], the “Hygroscopicity (time after which the sample deliquesced)” value in data set [1] (40° C./75% RH) was 3 days. Further, the “Stability of the crystalline salt on storage (reduced hygroscopicity)” value in data set [1] (temperature of 40° C., relative humidity of 75%) is reported as “up to three days”. Further, the “Water uptake (KF)” value was 0.1% in data set [2] (setting [4]) and “no water uptake” in data set [2] (over 3 years at 25° C./60% RH). In addition, the “Degradation (HPLC)” value in data set [3] (setting [4]) and in data set [3] (over 3 years at 25° C./60% RH) was 0.1% each time.
Regarding `CC(C)[C@H]1c2[nH]cnc2CCN1C(=O)O[C@H]1CCOC1` [Free base, (3S)-Tetrahydrofuran-3-yl (4S)-4-isopropyl-1,4,6,7-tetrahydro-5H-imidazo[4,5-c]pyridine-5-carboxylate], in data set [1] (25° C./60% RH), the “Hygroscopicity (time in which the sample deliquesced)” value is 25° C./60% RH in <24 h.
